We go through 4 compounds from BindingDB's records for doi:10.1038/nchembio.421 (Novartis Institutes for BioMedical Research, 2010).

Some results are limits rather than exact numbers.

For the assay, the target named is T1, Farnesyl pyrophosphate synthase (Homo sapiens, UniProt P14324).
T1 sequence (P14324 whole entry): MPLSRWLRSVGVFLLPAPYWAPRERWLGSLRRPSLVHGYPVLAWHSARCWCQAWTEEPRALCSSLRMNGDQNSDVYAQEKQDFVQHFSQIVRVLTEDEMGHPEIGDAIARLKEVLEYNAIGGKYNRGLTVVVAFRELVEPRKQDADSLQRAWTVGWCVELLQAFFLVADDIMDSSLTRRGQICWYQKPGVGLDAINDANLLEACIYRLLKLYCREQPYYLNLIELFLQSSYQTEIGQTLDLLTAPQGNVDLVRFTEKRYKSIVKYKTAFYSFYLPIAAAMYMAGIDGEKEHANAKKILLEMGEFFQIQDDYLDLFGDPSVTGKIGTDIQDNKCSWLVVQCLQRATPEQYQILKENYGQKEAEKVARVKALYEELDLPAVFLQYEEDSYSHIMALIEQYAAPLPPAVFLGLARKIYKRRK
In words: Biophysical assay. Conditions: pH 7.4; 23 °C. The source says:
A biophysical assay using NMR spectroscopy to identify fragments with higher binding affinity to human recombinant FPPS.

Broadly, the IC50 is the concentration that gives 50% inhibition. The low end stands for greater potency in that assay, the high end for weaker potency in that assay. Turning to `O=C(O)c1cc(Cn2c(C(=O)O)cc3ccc4ccccc4c32)on1` [5-((2-Carboxy-1H-benzo[g]indol-1-yl)methyl)isoxazole-3-carboxylic acid, 12], the IC50 worked out at 0.08 µM.

The compound `CC(C(=O)O)c1cc2c(Cl)cccc2s1` (centres undefined) [2-(4-Chlorobenzo[b]thiophen-2-yl)propanoic acid, 5] had an IC50 of 80 µM.

In the case of `O=C(O)Cc1sc2ccccc2c1Cl` [2-(3-Chlorobenzo[b]thiophen-2-yl)acetic acid, 6], half-maximal inhibition (IC50) was put at 12 µM.

Take `Cc1c(CC(=O)O)sc2ccc(Cl)cc12` [CID68686]: the IC50 is above 500 µM.
